Reference: patent US6335013B1, “Methods and materials relating to CD39-like polypeptides” (Hyseq, Inc., priority 1999, dated 2002)

B1: ACR III: variant CD39-L4 with substitutions D168→T, S170→Q and L175→F (protein)
chain: MATSWGTVFFMLVVSCVCSAVSHRNQQTWFEGIFLSSMCPINVSASTLYGIMFDAGSTGTRIHVYTFVQKMPGQLPILEGEVFDSVKPGLSAFVDQPKQGAETVQGLLEVAKDSIPRSHWKKTPVVLKATAGLRLLPEHKAKALLFEVKEIFRKSPFLVPKGSVSIMTGQDEGIFAWVTVNFLTGQLHGHRQETVGTLDLGGASTQITFLPQFEKTLEQTPRGYLTSFEMFNSTYKLYTHSYLGFGLKAARLATLGALETEGTDGHTFRSACLPRWLEAEWIFGGVKYQYGGNQEGEVGFEPCYAEVLRVVRGKLHQPEEVQRGSFYAFSYYYDRAVDTDMIDYEKGGILKVEDFERKAREVCDNLENFTSGSPFLCMDLSYITALLKDGFGFADSTVLQLTKKVNNIETGWALGATFHLLQSLGISH
B2: CD39-L2myc-His (protein)
chain: MKKGIRYETSRKTSYIFQQPQHGPWQTRMRKISNHGSLRVAKVAYPLGLCVGVFIYVAYIKWHRATATQAFFSITRAAPGARWGQQAHSPLGTAADGHEVFYGIMFDAGSTGTRVHVFQFTRPPRETPTLTHETFKAVKPGLSAYADDVEKSAQGIRELLDVAKQDIPFDFWKATPLVLKATAGLRLLPGEKAQKLLQKVKEVFKASPFLVGDDCVSIMNGTDEGVSAWITINFLTGSLKTPGGSSVGMLDLGGGSTQIAFLPRVEGTLQASPPGYLTALRMFNRTYKLYSYSYLGLGLMSARLAILGGVEGQPAKDGKELVSPCLSPSFKGEWEHAEVTYRVSGQKAAASLHELCAARVSEVLQNRVHRTEEVKHVDFYAFSYYYDLAAGVGLIDAEKGGSLVVGDFEIAAKYVCRTLETQPQSSPFSCMDLTYVSLLLQEFGFPRSKVLKLTRKIDNVETSWALGAIFHYIDSLNRQKSPAS

Assays:
CD39-L2 [1] = test: Substrate (nucleotide) specificity of CD39-L2, inorganic phosphate release; type: biochemical, human; conditions: for % OF CONTROL, substrate specificity of CD39-L2: relative to ADP, nucleotide 1 mM, buffer A with 1 mM EGTA, 3 mM CaCl2 and 3 mM MgCl2, 37° C., 30 min; for enzymatic activity relative to ADP hydrolysis: assays repeated with 15 mM ADP and 15 mM CaCl2
CD39-L4 [2] = biological target: T1, CD39-L4 (Homo sapiens, UniProt O75356); test: Substrate (nucleotide) specificity of CD39-L4, inorganic phosphate release; type: biochemical; conditions: nucleotide 1 mM; for % OF CONTROL, substrate specificity of CD39-L4: relative to ADP, buffer A with 1 mM EGTA, 2 mM CaCl2 and MgCl2
T1 construct: to allow purification of the secreted mature form of the protein; made in house; host or cells: COS-7 cells, transient transfection (pcDNA3.1); protein captured from the medium on Nickel-NTA resin
T1 sequence (O75356 25-428): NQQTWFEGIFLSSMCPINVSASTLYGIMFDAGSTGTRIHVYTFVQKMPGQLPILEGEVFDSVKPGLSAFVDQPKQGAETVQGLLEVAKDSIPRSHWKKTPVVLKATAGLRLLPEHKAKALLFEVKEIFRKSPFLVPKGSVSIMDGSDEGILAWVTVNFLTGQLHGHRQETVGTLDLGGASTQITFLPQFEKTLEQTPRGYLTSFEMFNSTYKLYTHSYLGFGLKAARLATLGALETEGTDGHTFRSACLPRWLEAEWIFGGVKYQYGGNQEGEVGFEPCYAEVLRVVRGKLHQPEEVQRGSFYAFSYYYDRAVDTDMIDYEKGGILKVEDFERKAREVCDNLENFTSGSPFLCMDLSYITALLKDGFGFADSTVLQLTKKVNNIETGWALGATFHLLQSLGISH

CD39-L4 [3] = biological target: T1, CD39-L4; test: Inhibition of CD39-L4 ADPase activity by ATPase/phosphatase inhibitors and chelators; type: biochemical; conditions: concentrations as in Table 1
CD39-L2 [4] = test: Inhibition of CD39-L2 ADPase activity by ATPase/phosphatase inhibitors and chelators; type: biochemical, human; conditions: concentrations as in Table 3
[5] = ADPase and ATPase activity of CD39L4 wild type and ACR mutants, inorganic phosphate released; type: biochemical
[6] = ADPase activity of CD39-L2 from transfected COS-7 cells, stimulation by divalent cations and Ca2+ titration; type: biochemical
[7] = Kinetic characteristics of CD39-L2 ADP hydrolysis; type: biochemical
[8] = 15 mM CaCl2, ADP 0.75-18 mM, 15 min, 37° C.

| Molecule | % OF CONTROL, substrate specificity of CD39-L2 (CD39-L2 [1]) [%] | % OF CONTROL, substrate specificity of CD39-L4 (CD39-L4 [2]) [%] | inhibition of Ca2+ and Mg2+ stimulated CD39-L4 ADPase activity, in words (CD39-L4 [3]) | inhibition of CD39-L2 ADPase activity, in words (CD39-L2 [4]) | other results |
| --- | --- | --- | --- | --- | --- |
| Nc1ncnc2c1ncn2[C@@H]1O[C@H](COP(=O)(O)OP(=O)(O)O)[C@@H](O)[C@H]1O [ADP, Adenosine diphosphate] | 100 ± 8 | 100 ± 15 | – | – | rate of ADP hydrolysis by CD39-L4 relative to ATP (CD39-L4 [2]): approximately twenty-fold higher than ATP |
| Nc1ncnc2c1ncn2[C@@H]1O[C@H](COP(=O)(O)OP(=O)(O)OP(=O)(O)OP(=O)(O)OP(=O)(O)OC[C@H]2O[C@@H](n3cnc4c(N)ncnc43)[C@H](O)[C@@H]2O)[C@@H](O)[C@H]1O [Ap5A] | – | – | did not inhibit activity | did not inhibit activity | – |
| O=c1ccn([C@@H]2O[C@H](COP(=O)(O)OP(=O)(O)O)[C@@H](O)[C@H]2O)c(=O)[nH]1 [UDP] | 303 ± 5 | 408 ± 14 | – | – | enzymatic activity relative to ADP hydrolysis (CD39-L2 [1]): 228%; hydrolysis of the nucleotide by CD39-L4, in words (CD39-L4 [2]): very efficiently hydrolyzed |
| Nc1ncnc2c1ncn2[C@@H]1O[C@H](COP(=O)(O)OP(=O)(O)OP(=O)(O)O)[C@@H](O)[C@H]1O [ATP, Adenosine triphosphate] | 16 ± 2 | 5 ± 1 | – | – | hydrolysis of the nucleotide by CD39-L4, in words (CD39-L4 [2]): poorest substrate |
| F [F^−] | – | – | did not inhibit activity | partially inhibited activity | – |
| Nc1ccn([C@@H]2O[C@H](COP(=O)(O)OP(=O)(O)OP(=O)(O)O)[C@@H](O)[C@H]2O)c(=O)n1 [CTP] | 44 ± 4 | 26 ± 2 | – | – | – |
| Nc1ccn([C@@H]2O[C@H](COP(=O)(O)OP(=O)(O)O)[C@@H](O)[C@H]2O)c(=O)n1 [CDP] | 282 ± 18 | 268 ± 11 | – | – | enzymatic activity relative to ADP hydrolysis (CD39-L2 [1]): 73% |
| O=C(O)CN(CCN(CC(=O)O)CC(=O)O)CC(=O)O [EDTA] | – | – | significantly inhibited activity | inhibited CD39-L2 activity | – |
| CCN1C(=O)C=CC1=O [NEM] | – | – | did not significantly inhibit | not inhibited | – |
| Nc1nc2c(ncn2[C@@H]2O[C@H](COP(=O)(O)OP(=O)(O)O)[C@@H](O)[C@H]2O)c(=O)[nH]1 [GDP] | 338 ± 52 | 334 ± 38 | – | – | enzymatic activity relative to ADP hydrolysis (CD39-L2 [1]): 280%; hydrolysis of the nucleotide by CD39-L4, in words (CD39-L4 [2]): very efficiently hydrolyzed |
| [N-]=[N+]=[N-] [N3^−] | – | – | did not significantly inhibit | not inhibited | – |
| O=c1ccn([C@@H]2O[C@H](COP(=O)(O)OP(=O)(O)OP(=O)(O)O)[C@@H](O)[C@H]2O)c(=O)[nH]1 [UTP] | 13 ± 1 | 12 ± 4 | – | – | – |
| C[C@@H]1O[C@@H](O[C@H]2C[C@@H](O)[C@]3(CO)[C@H]4[C@H](O)C[C@]5(C)[C@@H](C6=CC(=O)OC6)CC[C@]5(O)[C@@H]4CC[C@]3(O)C2)[C@H](O)[C@H](O)[C@H]1O [Ouabain] | – | – | did not significantly inhibit | not inhibited | – |
| O=C(O)CN(CCOCCOCCN(CC(=O)O)CC(=O)O)CC(=O)O [EGTA] | – | – | significantly inhibited activity | inhibited CD39-L2 activity | – |
| Nc1nc2c(ncn2[C@@H]2O[C@H](COP(=O)(O)OP(=O)(O)OP(=O)(O)O)[C@@H](O)[C@H]2O)c(=O)[nH]1 [GTP] | 39 ± 1 | 34 ± 1 | – | – | – |
| B1 | – | – | – | – | hydrolysis of ADP, in words ([5]; ADP as substrate): hydrolyze ADP; hydrolysis of ATP, in words ([5]; ATP as substrate): neither the CD39L4 nor the CD39L4 mutant, ACR III, catalyzed hydrolysis; ADPase activity compared to wild type CD39-L4 ([5]; protein from COS-7 medium, 1 mM ADP, increase due to amount of protein, not specific activity): six-fold over wild type |
| B2 | – | – | – | – | stimulation of ADPase activity by Ca2+ ([6]; 15 mM ADP, CaCl2 added to 15 mM): 17 fold; stimulation of ADPase activity by Mg2+ ([6]; 15 mM ADP, MgCl2 added to 15 mM): 8 fold; fold increase in ADPase activity over cells transfected with vector alone ([6]; CD39-L2myc-His from COS-7 medium on Nickel-NTA resin, 1 mM ADP, no added cation): 8.7 fold; further fold increase in ADPase activity when Ca2+ and Mg2+ added ([6]; Ca2+ and Mg2+ added, 1 mM ADP): 2-3 fold; effect of high Ca2+ concentration on ADPase activity ([6]; CaCl2 2-15 mM, low substrate concentration, 37° C., 20 min): no inhibitory effect; K (Hill's Equation) [7, 8]: 364.5; cooperativity, n (Hill's Equation) [7, 8]: 2.48; Vmax of ADP hydrolysis ([7]; 15 mM CaCl2, ADP 0.75-18 mM, 15 min, 37° C., 3.5 ng protein per reaction): 1028 pmol/min; substrate at half-maximal velocity [S]0.5 ([7]; [S]0.5=K^1/n): 10.6 mM |
